Assay results as given in article PMC11310081, “Deep-learning-enabled antibiotic discovery through molecular de-extinction” (Nature Biomedical Engineering, 2024).
Values after ≈ are worked out from the molar mass of the structure shown. Where two headings read alike, the source gives them in different places. Peptide text beside a SMILES is read from it.

Key:
[1] = test system: A. baumannii ATCC 19606; format: cell-based, Acinetobacter baumannii; conditions: ATCC 19606, 20 h
Source text: (§1) The following Gram-negative bacteria were used in our study: A. baumannii ATCC 19606, E. coli ATCC 11775, E. coli AIC221 (E. coli MG1655 phnE_2::FRT), E. coli AIC222 (E. coli MG1655 pmrA53 phnE_2::FRT (colistin resistant)), K. pneumoniae ATCC 13883, P. aeruginosa PAO1 and P. aeruginosa PA14. The following Gram-positive bacteria were also used in our study: S. aureus ATCC 12600, S. aureus ATCC BAA-1556 (methicillin-resistant strain), E. faecalis ATCC 700802 (vancomycin-resistant strain) and E. faecium ATCC 700221 (vancomycin-resistant strain). Bacteria were grown from frozen stocks and plated on Luria–Bertani (LB) or Pseudomonas isolation agar plates (P. aeruginosa strains) and incubated overnight at 37 °C. After the incubation period, a single colony was transferred to 5 ml of LB medium, and cultures were incubated overnight (16 h) at 37 °C. The following day, an inoculum was prepared by diluting the overnight cultures 1:100 in 5 ml of the respective media and incubating them at 37 °C until bacteria reached logarithmic phase (OD600 = 0.3–0.5).
(§2) The in vitro antimicrobial activity of the peptides was assessed by using the broth microdilution assay. […] Aqueous solutions of the peptides were added to the plate at concentrations ranging from 1 to 64 μmol l^−1. […] The optical density of the plates was measured at 600 nm using a spectrophotometer. All assays were done as three biological replicates.

[2] = test system: HEK293T cells
Method: HEK293T cells were obtained from the American Type Culture Collection (CRL-3216). The cells were cultured in high-glucose Dulbecco’s modified Eagle’s medium supplemented with 1% penicillin and streptomycin (antibiotics) and 10% fetal bovine serum and grown at 37 °C in a humidified atmosphere containing 5% CO2.
One day before the experiment, an aliquot of 100 μl of the cells at 50,000 cells per ml was seeded into each well of the cell-treated 96-well plates used in the experiment (that is, 5,000 cells per well). […] After the incubation period, we performed the 3-(4,5-dimethylthiazol-2-yl)-2,5-diphenyltetrazolium bromide tetrazolium reduction assay (MTT assay)[53]. The MTT reagent was dissolved at 0.5 mg ml^−1 in medium without phenol red and was used to replace cell culture supernatants containing the peptides (100 μl per well), and the samples were incubated for 4 h at 37 °C in a humidified atmosphere containing 5% CO2 yielding the insoluble formazan salt. The resulting salts were then resuspended in hydrochloric acid (0.04 mol l^−1) in anhydrous isopropanol and quantified by spectrophotometric measurements of absorbance at 570 nm. All assays were done as three biological replicates.
Unless otherwise stated, all assays were performed in three independent biological replicates as indicated in each figure legend and Methods sections. The cytotoxic activities values were estimated using non-linear regression based on the range of concentrations screened and were shown as the values that cause lysis of 50% of the cells in the experiment. Two technical replicates were performed in the cytotoxicity assays within each of the three biological replicates.

[3] = test system: 11 clinically relevant bacterial pathogens; format: cell-based; conditions: Supplementary Dataset 2; against the 11 pathogens tested
Source text: as §1, §2

For `CC[C@H](C)[C@H](NC(=O)[C@H](CC(N)=O)NC(=O)[C@H](CC(C)C)NC(=O)[C@@H](NC(=O)[C@H](Cc1ccccc1)NC(=O)[C@@H]1CCCN1C(=O)[C@@H]1CCCN1C(=O)[C@@H](NC(=O)[C@H](CO)NC(=O)[C@H](CC(C)C)NC(=O)[C@H](CCCCN)NC(=O)[C@H](CCCCN)NC(=O)[C@H](Cc1ccc(O)cc1)NC(=O)[C@@H](NC(=O)[C@@H](N)CCCCN)[C@@H](C)CC)[C@@H](C)O)[C@@H](C)O)C(=O)N[C@@H](CCCNC(=N)N)C(=O)N[C@H](C(=O)N[C@@H](CC(C)C)C(=O)N1CCC[C@H]1C(=O)N[C@@H](CCCCN)C(=O)N[C@H](C(=O)N[C@@H](CCCCN)C(=O)N[C@@H](Cc1ccccc1)C(=O)N1CCC[C@H]1C(=O)N[C@@H](CCCCN)C(=O)O)C(C)C)[C@@H](C)O` [Mylodonin-3] (H-KIYKKLSTPPFTLNIRTLPKVKFPK-OH; N-terminus and C-terminus assumed), the “Minimal inhibitory concentration, A. baumannii ATCC19606” value (“Minimal inhibitory concentration” for short) [1] was 16 µmol/L (≈ 47.3 µg/mL), the CC50 ([2]; 24 h) was greater than 128 µmol/L and the “Active or Inactive” value [3] was “Active”.

In the case of `CC[C@H](C)[C@H](NC(=O)[C@H](CCCNC(=N)N)NC(=O)[C@H](Cc1c[nH]cn1)NC(=O)[C@H](CCCCN)NC(=O)[C@@H](NC(=O)CNC(=O)[C@H](CCCNC(=N)N)NC(=O)[C@H](C)NC(=O)[C@H](CCCCN)NC(=O)[C@@H](NC(=O)[C@H](C)NC(=O)[C@@H]1CCCN1C(=O)[C@H](CC(C)C)NC(=O)[C@H](CCC(N)=O)NC(=O)[C@H](CO)NC(=O)[C@H](Cc1ccccc1)NC(=O)[C@H](CC(C)C)NC(=O)[C@H](CC(C)C)NC(=O)[C@@H](NC(=O)[C@@H](N)CS)C(C)C)C(C)C)[C@@H](C)O)C(=O)N[C@@H](CCCCN)C(=O)N[C@@H](Cc1c[nH]c2ccccc12)C(=O)N[C@@H](CC(N)=O)C(=O)N[C@@H](CCCNC(=N)N)C(=O)N[C@@H](CCCCN)C(=O)O` [Equusin-4] (H-CVLLFSQLPAVKARGTKHRIKWNRK-OH; N-terminus and C-terminus assumed), the “Minimal inhibitory concentration” value [1] is reported as 16 µmol/L (≈ 47.2 µg/mL), the CC50 ([2]; 24 h) is reported as greater than 128 µmol/L and the “TI (therapeutic index)” value ([2]; 24 h) is reported as greater than 8. The “Active or Inactive” value [3] was “Active”.

In the case of `CC[C@H](C)[C@H](NC(=O)[C@H](CCCCN)NC(=O)[C@H](CC(N)=O)NC(=O)[C@@H](NC(=O)[C@@H](NC(=O)[C@H](Cc1c[nH]c2ccccc12)NC(=O)[C@H](CC(C)C)NC(=O)[C@H](CCC(N)=O)NC(=O)[C@H](CC(C)C)NC(=O)[C@@H](NC(=O)[C@H](C)NC(=O)[C@H](CC(C)C)NC(=O)[C@@H](N)CCCNC(=N)N)[C@@H](C)O)[C@@H](C)O)[C@@H](C)CC)C(=O)N[C@H](C(=O)N[C@@H](CCCCN)C(=O)N[C@@H](CCC(N)=O)C(=O)N[C@@H](CC(C)C)C(=O)N[C@@H](CCSC)C(=O)N[C@H](C(=O)N1CCC[C@H]1C(=O)N[C@@H](CC(C)C)C(=O)N[C@@H](CC(N)=O)C(=O)N[C@@H](CCCCN)C(=O)N1CCC[C@H]1C(=O)NCC(=O)N[C@@H](Cc1c[nH]cn1)C(=O)N[C@@H](CCCCN)C(=O)O)[C@@H](C)CC)[C@@H](C)O` [Ararin-2] (H-RLATLQLWTINKITKQLMIPLNKPGHK-OH; N-terminus and C-terminus assumed), the “Minimal inhibitory concentration” value [1] is reported as 16 µmol/L (≈ 50.5 µg/mL), the CC50 ([2]; 24 h) is reported as greater than 128 µmol/L and the “Active or Inactive” value [3] is reported as “Active”.

For `CC[C@H](C)[C@H](NC(=O)[C@@H]1CCCN1C(=O)[C@H](CC(N)=O)NC(=O)[C@@H]1CCCN1C(=O)[C@@H]1CCCN1C(=O)[C@H](CCCCN)NC(=O)[C@@H](N)CCCCN)C(=O)N[C@@H](CCCCN)C(=O)N1CCC[C@H]1C(=O)N[C@@H](CCCCN)C(=O)N[C@H](C(=O)N1CCC[C@H]1C(=O)N[C@@H](CC(C)C)C(=O)N[C@@H](CO)C(=O)N[C@@H](C)C(=O)N1CCC[C@H]1C(=O)N[C@@H](CCCNC(=N)N)C(=O)N[C@@H](CCCCN)C(=O)N[C@@H](CO)C(=O)N1CCC[C@H]1C(=O)N[C@@H](CC(N)=O)C(=O)N[C@H](C(=O)N[C@H](C(=O)N[C@@H](CCCCN)C(=O)N[C@@H](Cc1ccc(O)cc1)C(=O)N[C@@H](CCCNC(=N)N)C(=O)N[C@@H](CC(C)C)C(=O)N[C@@H](CCCCN)C(=O)N[C@@H](Cc1ccccc1)C(=O)N[C@@H](CCCNC(=N)N)C(=O)O)C(C)C)[C@@H](C)O)C(C)C` [Mammuthusin-5] (H-KKPPNPIKPKVPLSAPRKSPNTVKYRLKFR-OH; N-terminus and C-terminus assumed), the “Minimal inhibitory concentration” value [1] was 32 µmol/L (≈ 112 µg/mL), the CC50 ([2]; 24 h) was greater than 128 µmol/L and the “TI (therapeutic index)” value ([2]; 24 h) was greater than 4. For the same molecule, the “Active or Inactive” value [3] was “Active”.

With `CC[C@H](C)[C@H](NC(=O)[C@H](CC(C)C)NC(=O)[C@@H](NC(=O)[C@H](CCCCN)NC(=O)[C@H](Cc1c[nH]c2ccccc12)NC(=O)[C@@H](NC(=O)[C@H](CCCCN)NC(=O)[C@H](CC(=O)O)NC(=O)[C@@H](NC(=O)[C@H](CC(C)C)NC(=O)[C@H](Cc1ccccc1)NC(=O)[C@H](C)NC(=O)CNC(=O)[C@@H](NC(=O)[C@@H](N)CCCCN)C(C)C)C(C)C)C(C)C)[C@@H](C)O)C(=O)O` [Anomalopterin-2] (H-KVGAFLVDKVWKTLI-OH; N-terminus and C-terminus assumed) the “Minimal inhibitory concentration” value [1] was 32 µmol/L (≈ 54.9 µg/mL), the CC50 ([2]; 24 h) was greater than 128 µmol/L and the “Active or Inactive” value [3] was “Active”.

In the case of `CC[C@H](C)[C@H](N)C(=O)N[C@@H](Cc1ccccc1)C(=O)N[C@@H](CC(C)C)C(=O)N[C@@H](Cc1c[nH]cn1)C(=O)N[C@@H](CC(C)C)C(=O)N[C@@H](CCCCN)C(=O)N[C@H](C(=O)N[C@@H](CC(C)C)C(=O)N[C@@H](CCCCN)C(=O)N[C@H](C(=O)N[C@H](C(=O)N[C@@H](Cc1c[nH]cn1)C(=O)N[C@@H](CC(C)C)C(=O)N[C@@H](CC(C)C)C(=O)O)[C@@H](C)CC)[C@@H](C)CC)[C@@H](C)O` [Mammuthusin-1] (H-IFLHLKTLKIIHLL-OH; N-terminus and C-terminus assumed), the “Minimal inhibitory concentration” value [1] is reported as 8 µmol/L (≈ 13.6 µg/mL), the CC50 ([2]; 24 h) is reported as greater than 128 µmol/L and the “Active or Inactive” value [3] is reported as “Active”.

For `CC[C@H](C)[C@H](NC(=O)[C@H](CCCCN)NC(=O)[C@H](CC(C)C)NC(=O)[C@H](CO)NC(=O)[C@@H](NC(=O)[C@H](CO)NC(=O)[C@H](CC(C)C)NC(=O)[C@H](CCCCN)NC(=O)[C@@H](NC(=O)[C@@H](NC(=O)[C@H](CC(N)=O)NC(=O)[C@@H](NC(=O)[C@@H](NC(=O)[C@@H](NC(=O)[C@H](Cc1c[nH]c2ccccc12)NC(=O)[C@@H](N)Cc1c[nH]cn1)[C@@H](C)CC)[C@@H](C)O)[C@@H](C)CC)[C@@H](C)O)[C@@H](C)CC)[C@@H](C)CC)C(=O)O` [Lophiosin-1] (H-HWITINTIKLSISLKI-OH; N-terminus and C-terminus assumed), the CC50 [2] was 68.02 µmol/L and the “Active or Inactive” value [3] was “Active”.

In the case of `CC[C@H](C)[C@H](NC(=O)[C@H](CC(C)C)NC(=O)[C@H](Cc1c[nH]cn1)NC(=O)[C@@H](NC(=O)[C@H](CC(C)C)NC(=O)[C@H](CC(C)C)NC(=O)[C@H](Cc1c[nH]cn1)NC(=O)CN)[C@@H](C)CC)C(=O)NCC(=O)N[C@@H](CCCCN)C(=O)N[C@@H](C)C(=O)N[C@H](C(=O)N[C@@H](CC(C)C)C(=O)N[C@@H](C)C(=O)N[C@@H](CC(C)C)C(=O)O)[C@@H](C)O` [Arctoterin-1] (H-GHLLIHLIGKATLAL-OH; N-terminus and C-terminus assumed), the “Minimal inhibitory concentration” value [1] is reported as 64 µmol/L (≈ 100 µg/mL), the CC50 ([2]; 24 h) is reported as greater than 128 µmol/L and the “Active or Inactive” value [3] is reported as “Active”.

`CC[C@H](C)[C@H](NC(=O)[C@@H](N)[C@@H](C)O)C(=O)N[C@@H](CCCCN)C(=O)N[C@@H](CC(C)C)C(=O)N[C@@H](Cc1ccccc1)C(=O)N[C@@H](CC(C)C)C(=O)N[C@@H](CO)C(=O)N[C@@H](Cc1ccccc1)C(=O)N[C@@H](CCCCN)C(=O)N[C@@H](CC(C)C)C(=O)O` [Xenothrixin-1] (H-TIKLFLSFKL-OH; N-terminus and C-terminus assumed) was tested, and the “Minimal inhibitory concentration” value [1] was 8 µmol/L (≈ 9.68 µg/mL), the CC50 [2] was 70.77 µmol/L and the “TI (therapeutic index)” value [2] was 8.84. For the same molecule, the CC50 ([2]; 24 h) was 70.77 µmol/L and the “Active or Inactive” value [3] was “Active”.
